This passage reports IC50 results from paper PMC11551755, “Structure-based discovery of first inhibitors targeting the helicase activity of human PIF1” (Nucleic Acids Research, 2024).

Like-named read-outs stand apart in the source and are kept apart here.

In this experiment the target is T1, hPIF1HD (Homo sapiens, UniProt Q9H611).
T1 construct: the hPIF1HD construct starts at residue Gln 206 and ends at Leu 620; hexa-histidine tag (N, cleaved yes); made in house; host or cells: ArcticExpress BL21(DE3) E. coli (Agilent Technologies)
T1 sequence (Q9H611 206-620): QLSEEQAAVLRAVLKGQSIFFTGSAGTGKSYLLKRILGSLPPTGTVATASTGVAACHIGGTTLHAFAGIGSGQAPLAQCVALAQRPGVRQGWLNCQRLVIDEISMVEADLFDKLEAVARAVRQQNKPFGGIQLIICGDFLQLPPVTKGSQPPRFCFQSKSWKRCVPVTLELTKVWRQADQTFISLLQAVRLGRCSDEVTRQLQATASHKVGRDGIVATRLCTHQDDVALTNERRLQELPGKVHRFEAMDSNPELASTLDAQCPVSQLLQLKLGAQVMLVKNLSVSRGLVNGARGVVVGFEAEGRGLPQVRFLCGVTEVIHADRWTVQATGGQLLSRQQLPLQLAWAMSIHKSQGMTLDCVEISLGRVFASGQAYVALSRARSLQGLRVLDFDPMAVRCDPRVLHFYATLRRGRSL
Kind of experiment: ssDNA d(T)55 binding assay (EMSA), wild-type hPIF1HD. As to conditions: 5 mM AMP-PNP, read-out: IC50 for inhibition of hPIF1HD ssDNA binding, WT. As to the method: DNA binding of hPIF1HD was assayed using a ^32P-5′ end-labelled oligo d(T)55 substrate (0.25 nM), under the same buffer conditions described for helicase assays, but with AMP-PNP instead of ATP. Reaction products were resolved on 5% poly-acrylamide gels (29:1 acrylamide:bis-acrylamide) using 0.25× TBE running buffer ([19],[28]). Gels were processed and reaction products quantified by phosphorimaging and IC50 values determined as described above.
In the hPIF1HD/AMP-PNP/1 structure, the compound 1 binding site is largely between domains 2A and 2B and is absent in the modelled hPIF1HD-ssDNA complex (Figure 2), due to the large relative movement of domain 2B required for ssDNA binding, with or without bound nucleotide ([19],[34],[35],[47]). […] To test this, we assayed binding to a radiolabelled oligo d(T)55 substrate under helicase reaction conditions, with AMP-PNP instead of ATP, in the presence of the same SMIs selected for helicase IC50 analysis (Table 1). hPIF1HD was used rather than FLhPIF1 to eliminate the non-specific DNA binding activity of the N-terminal domain ([27],[29]), and complexes were resolved by gel electrophoresis (electrophoretic mobility shift assay, EMSA). […] With an increasing concentration of compound 1C (or other analogues of 1) or a derivative, progressive inhibition of ssDNA binding was observed, allowing determination of IC50 values for most compounds tested. It was not possible to obtain data for compounds 3, 7, 8 and 9 due to retention of substrate in the gel wells, possibly due to low solubility of the compounds (Supplementary Figure S10).
Figure 4. Inhibition of hPIF1HD ssDNA binding by compound 1 and derivatives. Binding reactions were assembled under helicase reaction conditions but with 0.25 nM radiolabelled oligo d(T)55, 2 nM hPIF1HD, 5 mM AMP-PNP and 0.0078–2 mM SMI. Products were resolved by EMSA for quantification and IC50 determination (n = 3 repeats). Bound ssDNA was calculated as the sum of the major and minor species, interpreted as one or two bound hPIF1HD molecules respectively. See also Supplementary Figure S10. IC50 values are given along with those determined for hPIF1HD variants V258A and V258L (see Supplementary Figure S12). TEXT PRINTED IN THE PICTURE: 1C: IC50 (μM): N.D. | 1E: IC50 (μM): N.D. | 2: IC50 (μM): WT: 224 ± 86; IC50 (μM): V258A: 103 ± 31; IC50 (μM): V258L: 304 ± 88 | 4: IC50 (μM): N.D. | 5: IC50 (μM): WT: 198 ± 54; IC50 (μM): V258A: 79.2 ± 27; IC50 (μM): V258L: 414 ± 45 | 6: IC50 (μM): WT: 722 ± 194; IC50 (μM): V258A: 295 ± 116; IC50 (μM): V258L: 1010 ± 282 | 10: IC50 (μM): WT: 224 ± 59; IC50 (μM): V258A: 152 ± 42; IC50 (μM): V258L: 378 ± 99 | 11: IC50 (μM): WT: 284 ± 110; IC50 (μM): V258A: 151 ± 51; IC50 (μM): V258L: 551 ± 215
On the technique in general: In EMSA bound probe runs differently from free probe, usually more slowly.

Where [1] appears, read: 0.25 nM d(T)55, 2 nM hPIF1HD, 0.0078–2 mM SMI, n = 3.

As usually defined, the IC50 is the concentration that inhibits the measured activity by half.

As for `CC(=O)c1ccc(-c2csc(N)n2)cc1` [Compound 2], the IC50 (as printed in Supplementary Figure 12 legend, 2 nM hPIF1HD) is 224 ± 86 µM.
As for `N#Cc1ccc(-c2csc(N)n2)cc1` [Compound 5], the IC50 under setting [1] came to 198 ± 54 µM.
Take `Nc1nc(-c2ccc(C(=O)c3ccccc3)cc2)cs1` [Compound 6]: under setting [1], the IC50 turned out to be 722 ± 194 µM.
Still for that read-out and setting: the result for `CC(=O)Nc1ccc(-c2csc(N)n2)cc1-c1ccc(C)cc1` [Compound 10] reads 224 ± 59 µM.
Same read-out and setting: the result for `CC(=O)Nc1ccc(-c2csc(N)n2)cc1C1=CCNCC1` [Compound 11] reads 284 ± 110 µM.
